# Reference: patent US11555072B2, “A33 antibody compositions and methods of using the same in radioimmunotherapy” (MEMORIAL SLOAN KETTERING CANCER CENTER, priority 2017, dated 2023)
# Legend:
# [1] = system: T cells; assay: Cytokines and cytolytic molecules release assay; format: cell-based, human; details: T cells + Colo205, E:T 5:1, over 4 days
# Method: Cytokines and cytolytic molecules release assay. T cells were purified from PBMCs using pan T cell isolation kit (Miltenyi Biotec, Cambridge, Mass.). Target and control tumor cells were incubated with 2×10^6 cells/well at an effector to target ratio of 5:1 in 24-well plates in triplicates, with 2 ml total volume per well. Culture supernatants were collected at 24 hours, 48 hours, 72 hours and 96 hours and cytokine levels were measured with flow cytometry using LEGENDplex™ human CD8/NK Panel (BIOLEGEND®, San Diego, Calif.) according to the manufacturer's protocol.
# HuA33-BsAb induced secretion of inflammatory cytokines and cytolytic molecules. The secreted cytokine profile of T cells activated by huA33-BsAb in the presence of target tumors was examined. Total T cells were purified from PBMCs and cultured in the presence of Colo205 tumor cells at an effector to target ratio of 5:1. To estimate nonspecific activation, SKMEL5 cells were used as a negative control. Cell culture supernatants were collected daily over 4 days and the levels of cytokines and cytotoxic molecules were measured using a flow cytometry based multiplex method. […] Similarly, a significant amount of IL-6 was secreted by activated T cells. Th17 cytokine IL-17a was also secreted at high levels.
# [2] = SEC-HPLC stability test (37° C. incubation, freeze-thaw); format: physicochemical
# Method: SEC-HPLC analysis. Size and purity of huA33-BsAb was analyzed using HPLC system (Shimadzu Scientific Instruments Inc., Columbia, Md.). Monomeric species were identified using a molecular weight standard (Bio-Rad Laboratories, Hercules, Calif.) and percent monomer was calculated based on the relative area under curve (AUC) of different non-buffer peaks.
# The huA33 antibody was reformatted into bispecific format by fusing scFv of humanized OKT3 to the C-terminus of light chain via a flexible GS linker (FIG. 1(A)). The DNA construct was used to establish a CHO-S stable cell line and huA33-BsAb was purified from the supernatant. Protein yield using protein A chromatography was 50 mg/L to 100 mg/L without extensive optimization. Similar yields were observed using EXPI293™ transient expression system (data not shown). One-step protein A purification routinely produced protein with purity above 90%, as measured by SEC-HPLC.
# [3] = system: LS174T tumors; assay: s.c. LS174T xenograft with s.c. PBMCs; format: in vivo, mice; details: 6 doses over 3 weeks
# Method: (§1) In vivo tumor therapy. For subcutaneous (s.c.) tumor models, LS174T, Colo205 or SNU16 cells were combined with fresh PBMCs at a 1:1 ratio, mixed with […]® (volume of cell:gel=1:2), and implanted (100 μl/mouse) at the flank of Balb/c Rag2^−/−IL2Rγ^−/− (DKO) mice (now commercially available from Taconic as CIEA BRG mice). Treatment started after confirmation of tumor presence with a BIW schedule at 100 μg/mouse and continued for 3-4 weeks. Tumor growth was monitored by weekly measurement of tumor volume using a caliper or a digital device Peira TM900 Scanner (Peira Scientific Instruments, Turnhout, Belgium).
# HuA33-BsAb cured MSI tumor LSI74T in a s.c. xenograft model and suppressed tumor growth in an i.p. model. LS174T cells were mixed with PBMCs at a 1:1 ratio and implanted subcutaneously in DKO mice. […] Mice from tumor+PBMC group developed tumor ulceration and had to be euthanized.
# [4] = system: Colo205 tumors; assay: s.c. Colo205 xenograft with PBMCs; format: in vivo, mice
# Method: as §1
# HuA33-BsAb cured MSS tumor COLO205 in a s.c. xenograft model and suppressed tumor growth of metastatic MSS tumor SW1222. Two MSS colon cancer cell lines Colo205 and SW1222 were tested. For Colo205 cells, tumors were implanted subcutaneously with PBMCs as effector cells.
# [5] = system: SNU16 tumors; assay: s.c. SNU16 gastric cancer xenograft with PBMCs; format: in vivo, mice; details: s.c. SNU16 mixed with human PBMCs
# Method: as §1
# HuA33-BsAb inhibited growth of gastric cancers in a s.c. xenograft model. GPA33 is expressed in a subset of gastric cancer cells. […] Unlike NSG mice, DKO mice were more resistant to engraftment of human PBMCs.
# [6] = system: SW1222 tumor; assay: i.p. SW1222 tumor model with i.v. T cells; format: in vivo, mice; details: 6 doses i.v. over 3 weeks, T cells weekly over 2 weeks
# Method: (§2) For intraperitoneal (i.p.) tumor models, luciferase expressing LS174T-luc or SW1222-luc cells were resuspended in RPMI medium and injected intraperitoneally into DKO mice. Human effector cells were supplied as activated T cells and injected intravenously. Mice were treated with 2-3 weekly cycles of antibody-T cell-antibody regimen, with each component separated by 3-4 days. Growth of tumors was followed weekly by measuring luminescence signals on an IVIS Spectrum in vivo imaging system ([…]® Inc., Waltham, Mass.) after injection of 3.3 mg/mouse of luciferin. Luminescence was analyzed and quantified using Living Image Software ([…]®-Inc., Waltham, Mass.).
# For the SW1222 cell line, tumors were planted intraperitoneally and treated with 6 doses of i.v. antibody over 3 weeks, and i.v. T cell weekly over 2 weeks. […] It is anticipated that additional treatment cycles will completely eradicate the growth of tumors, as in subcutaneous models.
# [7] = system: LS174T tumor; assay: i.p. LS174T-luc tumor model with i.v. activated T cells; format: in vivo, mice
# Method: as §2
# To simulate malignant ascites, a common occurrence in colon cancers, luciferase-expressing LS174T cells were planted intraperitoneally into DKO mice. When tumor growth was confirmed by luminescence, mice were randomized into different treatment groups, treated with no antibody group (tumor only), tumor+T cell only group (tumor+ATC), or i.v. huA33-BsAb (7 doses over 3 weeks), plus weekly T cell injections over 3 weeks. Treatment was started on day 5 after tumor implantation. All T cells were injected through retro-orbital route.
# [8] = system: T cells; assay: In vivo T cell proliferation assay; details: CFSE-labeled PBMCs + Colo205 s.c. in DKO mice, antibody i.v. next day, tumors analyzed 4 days later
# Method: To determine if T cells can be activated in vivo, an in vivo proliferation assay was conducted by mixing CFSE-labeled PBMCs with Colo205 cells and the mixture was implanted subcutaneously onto DKO mice. huA33-BsAb was injected intravenously the next day and the tumors were isolated after another 4 days and analyzed by FACS.
substance,measurement,setting,value
"huA33-BsAb: huA33 IgG with humanized OKT3 scFv fused to light chain C-terminus, N297A and K322A; SEQ ID NO: 19 and 21","release of cytotoxic components (sFasL, sFas, Granzyme A, Granzyme B, Perforin, Granulysin)",[1],all released in the supernatant
same,secretion of cytokines by activated T cells,[1],"both Th1 cytokines (IL-2, IFNγ, TNFα) and Th2 cytokines (IL-4, IL-10) were secreted by activated T cells"
same,percentage of monomers after incubation,"[2]; 37° C. for 4 weeks, SEC-HPLC",only a minimal decrease in the percentage of monomers
same,SEC-HPLC profile after freeze-thaw,[2]; four cycles of freeze-thaw,did not cause noticeable changes in SEC-HPLC profile
same,time mice remained tumor free,[3],at least 120 days
same,tumor response,[3],effectively cured the mice
same,tumor response,[4]; 4 doses,completely eradicate Colo205 tumors
same,time mice remained tumor free,[4]; after a total of 6 doses,at least 4 months
same,survival,[5],significantly prolonged survival
same,tumor response,[5],effectively cured the mice harboring s.c. tumors
same,tumor growth and survival,[6],suppressed tumor growth and significantly prolonged mice survival
same,tumor growth in the abdomen,"[7]; i.v., 7 doses over 3 weeks, weekly T cells",significantly suppressed metastatic growth of LS174T tumor
same,time all mice remained alive,[7]; without further treatment,at least 60 days
same,CD4(+) and CD8(+) T cells that upregulated CD25 expression while undergoing cell division,[8],around 25%
